Source: patent publication EP2965760A1, “Combination of antiretroviral agents for use in the prevention or treatment of chronic inflammatory diseases” (Université de Montpellier, priority 2014, dated 2016)
“Also recorded” adds a separate entry of the source.

How the values were obtained:
SCC12B2 cell line = assay: Organotypic 3D reconstructed skin culture, cell differentiation (marker staining); type: cell-based, human; settings: SCC12B2-derived 3D reconstructed skin; for effect on cell differentiation: result in words; for effect on cell differentiation (staining for psoriasine and cytokeratin 10): 100 µM for 21 days, immunofluorescence
keratinocytes [1] = assay: Cytokine production by keratinocytes after demethylating treatment (protocol of figure 5, Day 7); type: cell-based; settings: after demethylation treatment
Method: • Figures 1A-C represent the expression of cytokeratin 10 on SCC12B2-derived 3D reconstructed skin detected by immunohistochemistry. • Figure 1A represents untreated SCC12B2-derived 3D reconstructed skin. • Figure 1B represents SCC12B2-derived 3D reconstructed skin treated by AZT (100 µM) for 21 days: • Figure 1C: represents SCC12B2-derived 3D reconstructed skin treated by efavirenz (100 µM) for 21 days. Arrow indicates cytokeratin 10 expression. • Figures 2A-D represent the expression of psoriasine on SCC12B2-derived 3D reconstructed skin detected by immunofluorescence. • Figure 2A represents untreated SCC12B2-derived 3D reconstructed skin. • Figure 2B represents SCC12B2-derived 3D reconstructed skin treated by AZT (100 µM) for 21 days: • Figure 2C represents SCC12B2-derived 3D reconstructed skin treated by Lamivudine (100 µM) for 21 days. • Figure 2D represents SCC12B2-derived 3D reconstructed skin treated by AZT (100 µM) and Lamivudine (100 µM) for 21 days. White staining denoted psoriasine expression. • Figures 3A-D represent the expression of cytokeratin 10 on SCC12B2-derived 3D reconstructed skin detected by immunofluorescence. • Figure 3A. represents untreated SCC12B2-derived 3D reconstructed skin. • Figure 3B represents SCC12B2-derived 3D reconstructed skin treated by AZT (100 µM) for 21 days: • Figure 3C represents SCC12B2-derived 3D reconstructed skin treated by lamividune (100 µM) for 21 days; • Figure 3D represents SCC12B2-derived 3D reconstructed skin treated with a combination of AZT (100 µM) and lamivudine (100 µM). White staining denoted cytokeratin 10 expression. • Figure 4 represents a histogram showing the level of endogenous RT activity in 3D reconstructed skin from various cell lines: PC F2 (A), PC B2 (B) or PC KN (C). PC F2 were obtained from the SCC12F2 cell line; PC B2 from the SCC12B2 cell line and PC KN from primary cultured human keratinocytes. Treatment were either azidothymidine (AZT; 2.) or efavirenz (3.) compared to the control (untreated; 1.). • Figure 5 represents a fow chart of the different treatments that aim at mimicking the initiating events of the psoriatic lesions • Figure 6 represents a histogram showing the level of the indicated cytokine production by keratinocytes at Day 7 of the protocol described in figure 5. Data were normalized versus control condition (fold increase in arbitrary unit). 1: IL-17 A; 2: IFN-γ; 3: TNF-α, 4: IL-1 RA and 5: IP-10. White columns represent the expression level in control cells. Black columns represent the expression level in cells treated with deoxyuridine, Grey columns represent the expression level in cells treated with desoxyuridine and Eviplera®. Hatched columns represent the expression level in cells treated with desoxyuridine and rilpivirine. Columns with dots represent the expression level in cells treated with desoxyuridine and efavirenz. • Figure 7 represents a graph showing time course (D0: Day 0; D2: Day 2; D5: Day 5; D7: Day 7) of the level of IL-6 production (fold increase) by keratinocytes according to the protocol described in figure 5. The expression is normalized to control at the corresponding time point. Diamond shape = untreated cells; Filled square = demethylating treated cells; Open square = treated with AZT; Filled circle = treated with lamivudine; Open circle = treated with Eviplera®. • Figure 8 represents a graph showing effects of ARVs upon simultaneous stimulation of RT activities on the production of IL-6 by keratinocytes. Values are normalized versus control. Filled diamond shape = control; Filled square = treated with demethylating agent; Triangle = treated with demethylating agent + Eviplera®; open diamond shape = treated with demethylating agent + lamivudine; Open circle = treated with demethylating agent + AZT; Filled circle = treated with demethylating agent + AZT + Lamivudine. […]

endogenous RT activities = assay: Endogenous reverse transcriptase activity in extracts of ARV-treated 3D reconstructed skin (colorimetric Mn2+ and Mg2+ RT kit); type: cell-based, human; settings: Mn2+ and Mg2+ dependent; reconstructed skin from SCC12F2, SCC12B2 and primary keratinocytes; result in words
Source text: Endogenous RT activities are increased in the psoriatic lesion when compared to non lesional psoriatic skin or normal skin extracts. […] The origin and the nature of these proteins are unknown but considering that the disease is not transmissible horizontally they should be attributed to endogenous proteins. In fact several cellular proteins including telomerase, LINE ORF2 and RT from human endogenous retroviruses (HERV) harbour a reverse transcriptase activity. LINE ORF2 is a Mg^2+-dependent RT, like RTs of the HERVs belonging to the MMTV-like group. The MLV-like HERV group harbours a Mn^2+-dependent RT. Effects of ARV on these activities was assessed in 3D culture models: Various reconstructed skin were assessed for RT inhibition through RTI treatment. They were generated from SSC12F2 and SCC12B2 cell lines and from normal primary keratinocytes (KN).
Reverse transcriptase assay : Protein extracts were prepared by crushing the cryostat skin sections (100 µm) in liquid nitrogen, incubating in ice-cold lysis buffer (10 mM Tris-HCl pH 7.5, 1 mM MgCl2, 1 mM EDTA, 0.1 mM PMSF, 5 mM β-mercaptoethanol, 0.5 % CHAPS, 10 % glycerol, 1 % NP40) and then subjected to three freeze/thaw cycles (LN2/4°C). […] RT activities were quantified with colorimetric highly sensitive Mn^2+ and Mg^2+ RT kit (Cavidi, Uppsala, Sweden) according to the manufacturer's instructions. […]

keratinocytes [2] = assay: IL-6 production by keratinocytes, ARVs given concomitantly with stimulation of RT activity; type: cell-based; settings: ARV concomitant with treatment that stimulated RT activity; result in words
Method: (§1) • Figures 1A-C represent the expression of cytokeratin 10 on SCC12B2-derived 3D reconstructed skin detected by immunohistochemistry. • Figure 1A represents untreated SCC12B2-derived 3D reconstructed skin. • Figure 1B represents SCC12B2-derived 3D reconstructed skin treated by AZT (100 µM) for 21 days: • Figure 1C: represents SCC12B2-derived 3D reconstructed skin treated by efavirenz (100 µM) for 21 days. Arrow indicates cytokeratin 10 expression. • Figures 2A-D represent the expression of psoriasine on SCC12B2-derived 3D reconstructed skin detected by immunofluorescence. • Figure 2A represents untreated SCC12B2-derived 3D reconstructed skin. • Figure 2B represents SCC12B2-derived 3D reconstructed skin treated by AZT (100 µM) for 21 days: • Figure 2C represents SCC12B2-derived 3D reconstructed skin treated by Lamivudine (100 µM) for 21 days. • Figure 2D represents SCC12B2-derived 3D reconstructed skin treated by AZT (100 µM) and Lamivudine (100 µM) for 21 days. […]

keratinocytes [3] = assay: IL-6 secretion by keratinocytes upon RT induction, time course (protocol of figure 5); type: cell-based; settings: ARV after demethylating treatment; result in words
Method: as §1

Row | Compound | effect on cell differentiation (SCC12B2 cell line) | IFN-α expression decreased (keratinocytes [1]) | IP10 expression decreased (keratinocytes [1]) | endogenous RT activities (endogenous RT activities) | effect on the synthesis of IL-6 (keratinocytes [2]) | effect on cell differentiation (staining for psoriasine and cytokeratin 10) (SCC12B2 cell line) | effect on the synthesis of IL-6 (keratinocytes [3]) | further results
1 | C[C@H](Cn1cnc2c(N)ncnc21)OCP(=O)(O)O [Tenofovir] | impact cell differentiation | – | – | – | – | – | – | –
2 | O=C1Nc2ccc(Cl)cc2[C@@](C#CC2CC2)(C(F)(F)F)O1 [Efavirenz] | reverses the "tumoral" phenotype of SCC12B2 cell line | more than 50% | more than 50% | decreased endogenous RT activities of both type | – | – | – | IL17A expression (keratinocytes [1]): undetectable; TNF-α production (keratinocytes [1]): potent induction; effect on cell differentiation (SCC12B2 cell line; listed as efavirenz): impact cell differentiation
3 | Nc1ccn([C@H]2CS[C@@H](CO)O2)c(=O)n1 [lamivudine, 2',3'-dideoxy-3'-thiacytidine] | – | – | – | – | no effect | Neither AZT, nor lamivudine has effect | neither AZT nor lamivudine have effect | –
4 | Cc1cn([C@H]2C[C@H](N=[N+]=[N-])[C@@H](CO)O2)c(=O)[nH]c1=O [AZT, Zidovudine] | no effect; also recorded: no or minor effects | – | – | less effective | no effect | Neither AZT, nor lamivudine has effect | neither AZT nor lamivudine have effect | –
5 | Cc1cc(C#N)cc(C)c1Oc1nc(Nc2ccc(C#N)cc2)nc(N)c1Br [Etravirine] | no or minor effects | – | – | – | – | – | – | –
6 | Cc1cc(/C=C/C#N)cc(C)c1Nc1ccnc(Nc2ccc(C#N)cc2)n1 [Rilpivirine] | – | more than 50% | more than 50% | – | – | – | – | –
